{
  "source": "patent EP4806435A1",
  "about": "“DIHYDROCHROMENE-DERIVATIVE-CONTAINING THERAPEUTIC AGENT FOR CANCER” (Sumitomo Pharma Co., Ltd., priority 2023, dated 2025)",
  "assay": "Phase 1 clinical trial: plasma pharmacokinetics",
  "format": "in vivo, human",
  "conditions": "human, plasma, oral; for half-life: read-out: Effective T1/2 (converted); for AUC: tau = 24 hours",
  "procedure": "Summary statistics based on preliminary data were obtained for the pharmacokinetics of Compound 1 in patients receiving once-daily doses ranging from 20 mg to 240 mg (Table 5). The mean plasma concentration-time curves of Compound 1 in the once-daily dose groups ranging from 20 mg to 240 mg are shown in Figure 11. In this study, one cycle consists of 28 days, and Cycle 1 Day 1 refers to Day 1 of the first cycle. […] Accumulation was observed after repeated administration. […] Based on these accumulation ratios, the half-life of Compound 1 was estimated to be approximately 4 days. Based on the currently available data, plasma concentrations are considered to have reached steady state by Day 15.\nSummary statistics based on preliminary data were obtained for the pharmacokinetics of Compound 1 in patients in the 20 mg QD, 40 mg QD, 80 mg QD, 120 mg QD, 180 mg QD, 240 mg QD, 360 mg QD, and 480 mg daily (240 mg BID) dose groups (Table 6). The mean plasma concentration-time curves of Compound 1 in the 20 mg QD to 480 mg daily (240 mg BID) dose groups are shown in Figure 12 (in Figure 12, Compound 1 is denoted as \"DSP-0390\"). In this study, one cycle consists of 28 days, and Cycle 1 Day 1 refers to Day 1 of the first cycle. […] The median Tmax ranged from 2 to 8 hours. Accumulation was observed after repeated administration, and assuming linearity based on the observed accumulation ratios, the estimated elimination half-life was considered to be on the order of several days (approximately 1 to 6 days) (data cut-off: March 2024).",
  "note": "Like-named read-outs stand apart in the source and are kept apart here.",
  "data": [
    {"smiles": "CC1(C)Oc2cc(Cl)ccc2[C@@H]2OCC3(CCN(CCn4ccnc4)CC3)C[C@H]21", "note": "[Compound 1, (4'aR,10'bR)-8'-chloro-1-[2-(1H-imidazol-1-yl)ethyl]-5',5'-dimethyl-4'a,10'b-dihydro-2'H,4'H,5'H-spiro[piperidine-4,3'-pyrano[3,2-c][1]benzopyran] diphosphate]", "values": [
      {"measurement": "Cmax", "setting": "80 mg, Cycle 2 Day 1, 80 mg, QD, cut-off April 2023, read-out: Cmax (median)", "result": 61, "unit": "ng/mL"},
      {"measurement": "Tmax", "setting": "80 mg, Cycle 2 Day 1, 80 mg, QD, cut-off April 2023, read-out: Tmax (mean)", "result": 8, "unit": "h"},
      {"measurement": "Tmax", "setting": "80 mg, Cycle 2 Day 1, 80 mg, QD, cut-off April 2023, read-out: Tmax (median)", "result": 8, "unit": "h"},
      {"measurement": "half-life", "setting": "120 mg, 120 mg QD, cut-off March 2024", "result": 67.2, "unit": "h"},
      {"measurement": "Cmax", "setting": "120 mg, Cycle 1, Day 1, 120 mg QD, cut-off March 2024, read-out: Cmax", "result": 44.2, "unit": "ng/mL"},
      {"measurement": "Tmax", "setting": "120 mg, Cycle 1, Day 1, 120 mg QD, cut-off March 2024, read-out: Tmax [a] median value", "result": 4, "unit": "h"},
      {"measurement": "AUC", "setting": "120 mg, Cycle 1, Day 1, 120 mg QD, cut-off March 2024, read-out: AUCtau [b]", "result": 577, "unit": "ng·h/mL"},
      {"measurement": "AUC(0-t)", "setting": "120 mg, Cycle 1 Day 1, 120 mg, QD, cut-off April 2023, read-out: AUC0-24 (geometric mean)", "result": 544, "unit": "ng·h/mL"},
      {"measurement": "AUC(0-t)", "setting": "120 mg, Cycle 1 Day 1, 120 mg, QD, cut-off April 2023, read-out: AUC0-24 (mean)", "result": 583, "unit": "ng·h/mL"},
      {"measurement": "AUC(0-t)", "setting": "120 mg, Cycle 1 Day 1, 120 mg, QD, cut-off April 2023, read-out: AUC0-24 (median)", "result": 605, "unit": "ng·h/mL"},
      {"measurement": "Cmax", "setting": "120 mg, Cycle 1 Day 1, 120 mg, QD, cut-off April 2023, read-out: Cmax (geometric mean)", "result": 40, "unit": "ng/mL"},
      {"measurement": "Cmax", "setting": "120 mg, Cycle 1 Day 1, 120 mg, QD, cut-off April 2023, read-out: Cmax (mean)", "result": 44, "unit": "ng/mL"},
      {"measurement": "Cmax", "setting": "120 mg, Cycle 1 Day 1, 120 mg, QD, cut-off April 2023, read-out: Cmax (median)", "result": 45, "unit": "ng/mL"},
      {"measurement": "Tmax", "setting": "120 mg, Cycle 1 Day 1, 120 mg, QD, cut-off April 2023, read-out: Tmax (mean)", "result": 4, "unit": "h"},
      {"measurement": "Tmax", "setting": "120 mg, Cycle 1 Day 1, 120 mg, QD, cut-off April 2023, read-out: Tmax (median)", "result": 4, "unit": "h"},
      {"measurement": "Cmax", "setting": "120 mg, Cycle 2, Day 1, 120 mg QD, cut-off March 2024, read-out: Cmax,ss", "result": 156, "unit": "ng/mL"},
      {"measurement": "Tmax", "setting": "120 mg, Cycle 2, Day 1, 120 mg QD, cut-off March 2024, read-out: Tmax,ss [a] median value", "result": 5, "unit": "h"},
      {"measurement": "AUC", "setting": "120 mg, Cycle 2, Day 1, 120 mg QD, cut-off March 2024, read-out: AUCtau,ss [b]", "result": 2610, "unit": "ng·h/mL"},
      {"measurement": "AUC(0-t)", "setting": "120 mg, Cycle 2 Day 1, 120 mg, QD, cut-off April 2023, read-out: AUC0-24 (geometric mean)", "result": 2420, "unit": "ng·h/mL"},
      {"measurement": "AUC(0-t)", "setting": "120 mg, Cycle 2 Day 1, 120 mg, QD, cut-off April 2023, read-out: AUC0-24 (mean)", "result": 2630, "unit": "ng·h/mL"},
      {"measurement": "AUC(0-t)", "setting": "120 mg, Cycle 2 Day 1, 120 mg, QD, cut-off April 2023, read-out: AUC0-24 (median)", "result": 2330, "unit": "ng·h/mL"},
      {"measurement": "Cmax", "setting": "120 mg, Cycle 2 Day 1, 120 mg, QD, cut-off April 2023, read-out: Cmax (geometric mean)", "result": 140, "unit": "ng/mL"},
      {"measurement": "Cmax", "setting": "120 mg, Cycle 2 Day 1, 120 mg, QD, cut-off April 2023, read-out: Cmax (mean)", "result": 156, "unit": "ng/mL"},
      {"measurement": "Cmax", "setting": "120 mg, Cycle 2 Day 1, 120 mg, QD, cut-off April 2023, read-out: Cmax (median)", "result": 138, "unit": "ng/mL"},
      {"measurement": "Tmax", "setting": "120 mg, Cycle 2 Day 1, 120 mg, QD, cut-off April 2023, read-out: Tmax (mean)", "result": 6, "unit": "h"},
      {"measurement": "Tmax", "setting": "120 mg, Cycle 2 Day 1, 120 mg, QD, cut-off April 2023, read-out: Tmax (median)", "result": 5, "unit": "h"},
      {"measurement": "half-life", "setting": "180 mg, 180 mg QD, cut-off March 2024", "result": 50.4, "unit": "h"},
      {"measurement": "Cmax", "setting": "180 mg, Cycle 1, Day 1, 180 mg QD, cut-off March 2024, read-out: Cmax", "result": 114, "unit": "ng/mL"},
      {"measurement": "Tmax", "setting": "180 mg, Cycle 1, Day 1, 180 mg QD, cut-off March 2024, read-out: Tmax [a] median value", "result": 6, "unit": "h"},
      {"measurement": "AUC", "setting": "180 mg, Cycle 1, Day 1, 180 mg QD, cut-off March 2024, read-out: AUCtau [b]", "result": 1370, "unit": "ng·h/mL"},
      {"measurement": "AUC(0-t)", "setting": "180 mg, Cycle 1 Day 1, 180 mg, QD, cut-off April 2023, read-out: AUC0-24 (geometric mean)", "result": 1060, "unit": "ng·h/mL"},
      {"measurement": "AUC(0-t)", "setting": "180 mg, Cycle 1 Day 1, 180 mg, QD, cut-off April 2023, read-out: AUC0-24 (mean)", "result": 1420, "unit": "ng·h/mL"},
      {"measurement": "AUC(0-t)", "setting": "180 mg, Cycle 1 Day 1, 180 mg, QD, cut-off April 2023, read-out: AUC0-24 (median)", "result": 1840, "unit": "ng·h/mL"},
      {"measurement": "Cmax", "setting": "180 mg, Cycle 1 Day 1, 180 mg, QD, cut-off April 2023, read-out: Cmax (geometric mean)", "result": 73, "unit": "ng/mL"},
      {"measurement": "Cmax", "setting": "180 mg, Cycle 1 Day 1, 180 mg, QD, cut-off April 2023, read-out: Cmax (mean)", "result": 101, "unit": "ng/mL"},
      {"measurement": "Cmax", "setting": "180 mg, Cycle 1 Day 1, 180 mg, QD, cut-off April 2023, read-out: Cmax (median)", "result": 140, "unit": "ng/mL"},
      {"measurement": "Tmax", "setting": "180 mg, Cycle 1 Day 1, 180 mg, QD, cut-off April 2023, read-out: Tmax (mean)", "result": 11, "unit": "h"},
      {"measurement": "Tmax", "setting": "180 mg, Cycle 1 Day 1, 180 mg, QD, cut-off April 2023, read-out: Tmax (median)", "result": 6, "unit": "h"},
      {"measurement": "Cmax", "setting": "180 mg, Cycle 2, Day 1, 180 mg QD, cut-off March 2024, read-out: Cmax,ss", "result": 215, "unit": "ng/mL"},
      {"measurement": "Tmax", "setting": "180 mg, Cycle 2, Day 1, 180 mg QD, cut-off March 2024, read-out: Tmax,ss [a] median value", "result": 6, "unit": "h"},
      {"measurement": "AUC", "setting": "180 mg, Cycle 2, Day 1, 180 mg QD, n=3, cut-off March 2024, read-out: AUCtau,ss [b]", "result": 4860, "unit": "ng·h/mL"},
      {"measurement": "AUC(0-t)", "setting": "180 mg, Cycle 2 Day 1, 180 mg, QD, N=1, cut-off April 2023, read-out: AUC0-24 (geometric mean)", "result": 7260, "unit": "ng·h/mL"},
      {"measurement": "AUC(0-t)", "setting": "180 mg, Cycle 2 Day 1, 180 mg, QD, N=1, cut-off April 2023, read-out: AUC0-24 (mean)", "result": 7260, "unit": "ng·h/mL"},
      {"measurement": "AUC(0-t)", "setting": "180 mg, Cycle 2 Day 1, 180 mg, QD, N=1, cut-off April 2023, read-out: AUC0-24 (median)", "result": 7260, "unit": "ng·h/mL"},
      {"measurement": "Cmax", "setting": "180 mg, Cycle 2 Day 1, 180 mg, QD, cut-off April 2023, read-out: Cmax (geometric mean)", "result": 281, "unit": "ng/mL"},
      {"measurement": "Cmax", "setting": "180 mg, Cycle 2 Day 1, 180 mg, QD, cut-off April 2023, read-out: Cmax (mean)", "result": 287, "unit": "ng/mL"},
      {"measurement": "Cmax", "setting": "180 mg, Cycle 2 Day 1, 180 mg, QD, cut-off April 2023, read-out: Cmax (median)", "result": 287, "unit": "ng/mL"},
      {"measurement": "Tmax", "setting": "180 mg, Cycle 2 Day 1, 180 mg, QD, cut-off April 2023, read-out: Tmax (mean)", "result": 7, "unit": "h"}
    ]}
  ]
}
